# Experimental data from ChEMBL document CHEMBL1201862, “PubChem BioAssay data set” (2004).
# Calls of active or inactive are those of the source.
# Assays:
# [1] = target: T1, Cytochrome P450 1A2 (Homo sapiens, UniProt P05177);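 also: PubChem cytochrome P450 panel assay, CYP1A2 panel member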
# T1 sequence (P05177 whole entry): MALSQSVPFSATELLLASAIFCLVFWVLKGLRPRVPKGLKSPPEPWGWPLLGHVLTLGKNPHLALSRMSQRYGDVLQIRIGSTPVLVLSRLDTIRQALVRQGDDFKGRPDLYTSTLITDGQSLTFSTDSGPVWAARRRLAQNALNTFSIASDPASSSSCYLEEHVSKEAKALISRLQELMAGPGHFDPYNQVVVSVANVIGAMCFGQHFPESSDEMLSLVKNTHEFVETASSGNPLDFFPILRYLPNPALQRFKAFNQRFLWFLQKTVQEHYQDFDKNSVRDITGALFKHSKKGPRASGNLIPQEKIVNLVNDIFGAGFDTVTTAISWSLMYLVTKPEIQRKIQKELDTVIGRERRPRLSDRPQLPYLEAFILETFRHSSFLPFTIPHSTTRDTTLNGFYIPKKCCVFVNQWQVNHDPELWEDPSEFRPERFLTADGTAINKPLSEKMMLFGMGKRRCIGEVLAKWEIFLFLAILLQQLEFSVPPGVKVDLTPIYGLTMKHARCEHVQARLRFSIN
# [2] = target: Cytochrome P450 2C19 (Homo sapiens, UniProt P33261); test: Cytochrome panel assay with activity outcomes. Panel member name: p450-cyp2c19 Compounds with AC50 equal or less than 10 uM are considered active; type: functional
# [3] = target: Cytochrome P450 2C9 (Homo sapiens, UniProt P11712)
# [4] = target: Cytochrome P450 3A4 (Homo sapiens, UniProt P08684);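 also: CYP3A4 tested as one member of a cytochrome P450 panel screen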
# [5] = target: T2, Rac GTPase-activating protein 1 (Homo sapiens, UniProt Q9H0H5); test: blockers of MgcRacGAP-driven Rac1 GTP hydrolysis – biochemical, ADP Hunter fluorescence, primary and confirmatory, confirmation (AID 624330); type: functional
# T2 sequence (Q9H0H5 whole entry): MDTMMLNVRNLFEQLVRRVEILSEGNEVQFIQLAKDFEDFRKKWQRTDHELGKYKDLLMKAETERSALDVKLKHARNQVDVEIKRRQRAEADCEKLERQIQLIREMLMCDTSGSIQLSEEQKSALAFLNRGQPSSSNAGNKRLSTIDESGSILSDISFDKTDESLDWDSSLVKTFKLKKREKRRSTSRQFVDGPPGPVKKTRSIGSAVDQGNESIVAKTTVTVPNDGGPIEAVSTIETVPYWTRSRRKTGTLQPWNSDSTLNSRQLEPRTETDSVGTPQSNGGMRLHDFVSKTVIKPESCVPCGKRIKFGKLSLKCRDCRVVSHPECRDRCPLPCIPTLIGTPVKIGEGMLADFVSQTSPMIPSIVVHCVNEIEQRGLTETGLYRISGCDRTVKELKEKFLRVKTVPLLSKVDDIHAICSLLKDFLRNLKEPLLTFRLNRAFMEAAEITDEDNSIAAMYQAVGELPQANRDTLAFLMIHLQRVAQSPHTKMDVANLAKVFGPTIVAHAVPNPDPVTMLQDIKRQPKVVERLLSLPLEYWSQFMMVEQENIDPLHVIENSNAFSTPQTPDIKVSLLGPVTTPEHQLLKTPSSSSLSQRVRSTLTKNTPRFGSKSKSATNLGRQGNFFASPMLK
# [6] = tested on: Streptococcus sp. 'group A'; test: Streptococcus pyogenes SK(-)GAS viability under kanamycin – luminescence, BacTiterGlo, confirmation, counter-screen for streptokinase expression inhibitor project, dose response (AID 1900); type: functional, organism-based
# [7] = target: T3, Streptokinase A (Streptococcus pyogenes serotype M1, UniProt P10520); test: viability-normalized secreted streptokinase activity reduction – plasminogen activation absorbance, OD405, dose response (AID 1914); type: functional, Streptococcus pyogenes M1 GAS;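 also: secreted streptokinase activity via plasminogen activation per viability signal from cell pellet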
# T3 sequence (P10520 whole entry): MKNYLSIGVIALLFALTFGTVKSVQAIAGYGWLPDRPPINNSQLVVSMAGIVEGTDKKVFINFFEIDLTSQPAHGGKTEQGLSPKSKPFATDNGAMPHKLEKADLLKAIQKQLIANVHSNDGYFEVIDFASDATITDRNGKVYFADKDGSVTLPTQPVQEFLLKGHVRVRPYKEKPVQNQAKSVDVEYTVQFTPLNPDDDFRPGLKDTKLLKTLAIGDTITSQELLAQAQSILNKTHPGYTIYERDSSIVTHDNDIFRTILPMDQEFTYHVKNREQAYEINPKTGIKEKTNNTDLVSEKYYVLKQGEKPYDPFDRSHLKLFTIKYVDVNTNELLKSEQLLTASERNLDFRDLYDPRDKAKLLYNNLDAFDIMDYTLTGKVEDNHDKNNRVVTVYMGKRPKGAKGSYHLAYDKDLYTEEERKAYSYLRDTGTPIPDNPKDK
# [8] = tested on: Streptococcus; test: GAS UMAA2166 growth inhibition – luminescence, BacTiterGlo, counter-screen for streptokinase expression inhibitor project, dose response (AID 1915); type: functional, organism-based;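 also: potency for reduction of bacterial viability or growth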
# [9] = viability of uninfected HEp-2 cells – cell-based, HTS, cytotoxicity control for RSV inhibitor project, dose response (AID 2410); type: functional; conditions: human respiratory syncytial virus
# Chain of Cytochrome P450 2C9 (P11712 whole entry): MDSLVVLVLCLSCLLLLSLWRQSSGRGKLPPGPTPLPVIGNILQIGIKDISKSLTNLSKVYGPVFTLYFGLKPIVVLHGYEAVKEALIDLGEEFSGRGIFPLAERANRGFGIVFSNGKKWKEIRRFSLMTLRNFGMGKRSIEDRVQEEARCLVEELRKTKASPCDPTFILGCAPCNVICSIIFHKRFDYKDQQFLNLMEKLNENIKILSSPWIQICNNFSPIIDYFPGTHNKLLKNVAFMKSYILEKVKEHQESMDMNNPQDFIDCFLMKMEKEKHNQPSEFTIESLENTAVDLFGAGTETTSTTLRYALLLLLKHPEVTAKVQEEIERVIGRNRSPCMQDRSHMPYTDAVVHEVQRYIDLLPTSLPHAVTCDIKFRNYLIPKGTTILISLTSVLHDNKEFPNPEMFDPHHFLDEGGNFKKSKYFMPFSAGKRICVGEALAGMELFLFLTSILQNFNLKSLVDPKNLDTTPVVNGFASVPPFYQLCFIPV
# Chain of Cytochrome P450 2C19 (P33261 whole entry): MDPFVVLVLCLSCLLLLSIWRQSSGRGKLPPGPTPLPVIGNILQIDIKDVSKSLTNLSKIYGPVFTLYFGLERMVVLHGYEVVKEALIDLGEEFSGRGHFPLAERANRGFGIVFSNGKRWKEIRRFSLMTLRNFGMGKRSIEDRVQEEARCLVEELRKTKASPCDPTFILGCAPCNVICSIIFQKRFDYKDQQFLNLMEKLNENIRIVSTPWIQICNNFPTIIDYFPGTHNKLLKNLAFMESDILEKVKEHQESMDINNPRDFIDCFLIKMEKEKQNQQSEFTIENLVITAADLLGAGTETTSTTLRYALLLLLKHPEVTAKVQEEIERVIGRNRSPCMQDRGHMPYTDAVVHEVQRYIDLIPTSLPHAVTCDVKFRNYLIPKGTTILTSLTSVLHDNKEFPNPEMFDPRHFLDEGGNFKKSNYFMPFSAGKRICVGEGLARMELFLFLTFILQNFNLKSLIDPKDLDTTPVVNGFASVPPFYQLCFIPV
# Chain of Cytochrome P450 3A4 (P08684 whole entry): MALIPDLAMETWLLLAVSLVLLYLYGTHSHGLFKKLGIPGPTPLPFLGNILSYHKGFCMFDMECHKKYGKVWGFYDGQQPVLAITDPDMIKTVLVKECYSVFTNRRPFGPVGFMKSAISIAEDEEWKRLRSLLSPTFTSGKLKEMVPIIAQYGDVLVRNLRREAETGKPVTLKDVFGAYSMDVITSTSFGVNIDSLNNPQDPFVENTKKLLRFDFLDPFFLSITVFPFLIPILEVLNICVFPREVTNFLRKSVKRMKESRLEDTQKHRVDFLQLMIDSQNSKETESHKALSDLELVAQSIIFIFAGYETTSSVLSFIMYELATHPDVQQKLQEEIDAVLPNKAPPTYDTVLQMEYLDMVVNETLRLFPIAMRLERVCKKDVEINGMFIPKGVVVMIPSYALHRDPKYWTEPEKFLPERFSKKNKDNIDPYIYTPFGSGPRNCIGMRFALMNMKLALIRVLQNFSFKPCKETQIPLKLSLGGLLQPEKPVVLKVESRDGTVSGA
smiles,measurement,setting,value
CNC[C@@H](SC)c1ccc(O)c(O)c1,AC50,[1],6.31 µM (inconclusive)
N#C/C(=C(\O)C(=O)O)c1ccc(-c2cccc3ccccc23)cc1,AC50,[2],inconclusive
same,AC50,[3],3.16 µM (inconclusive)
C/C(=C(/CCO)SSC[C@@H]1CCCO1)N(C=O)Cc1cnc(C)nc1N,AC50,[4],10 µM (inconclusive)
CN(C)/C(CN1CCOCC1)=C1\N=C(c2ccccc2)OC1=O,AC50,[2]; read-out: AC50,7.94 µM (inconclusive)
COc1ccccc1COCC(O)CNCC1(N2CCCCC2)CCCCC1 (stereo not drawn),IC50,[5],121 µM (active)
O=C(Oc1ccccc1)N1CCC2(CC1)CN(Cc1ccncc1)C2,AC50,[2]; read-out: AC50,20 µM (inconclusive)
same,AC50,[4],12.6 µM (inconclusive)
same,AC50,[1],10 µM (inconclusive)
O=C(Nc1ccc(F)cc1F)c1cccn1-c1ncc(C(F)(F)F)cc1Cl,AC50,[4],28.2 µM (inconclusive)
same,AC50,[3],39.8 µM (inconclusive)
same,AC50,[1],14.1 µM (inconclusive)
Cc1ccc(S(=O)(=O)N2CCC(C(=O)O)(c3ccccc3)CC2)cc1,AC50,[2],inconclusive
O=C(CSCc1ccc(Cl)cc1)Nc1nccs1,AC50,[4],3.55 µM (inconclusive)
same,AC50,[3],14.1 µM (inconclusive)
COc1ccc(CNC(=O)c2cnc(C)cn2)cc1,AC50,[1],12.6 µM (inconclusive)
O=C(c1cccc(Cl)c1)N1CCN(C2CCCCC2)CC1,IC50,[5],300 µM (active)
COc1cccc(C(C#N)N2N=C(C)CC2(C)C)c1O (stereo not drawn),AC50,[2]; read-out: AC50,2.24 µM (inconclusive)
O=C(Nc1nc2ccccc2n1CCN1CCCCC1)C1CCCCC1,AC50,[2]; read-out: AC50,28.2 µM (inconclusive)
same,AC50,[4],17.8 µM (inconclusive)
O=C(O)c1c2c(nc3ccccc13)/C(=C/c1ccc(O)cc1)CCC2,IC50,[5],46.6 µM (active)
Cc1ccccc1NC1=C(C(=O)c2ccccc2)N(C)S(=O)(=O)c2ccccc21,AC50,[4],3.16 µM (inconclusive)
N#Cc1cccc(NC(=O)N2CCCC3(CCN(C(=O)c4ccco4)CC3)C2)c1,AC50,[1],15.8 µM (inconclusive)
Cc1ccccc1CN1CCCN(Cc2ccc(Cl)cc2)S1(=O)=O,EC50,[6],10.1 µM (active)
same,EC50,[7],23.3 µM (active)
same,EC50,[8],> 150 µM (not active)
COc1cc(CN2CCN(c3ccccc3F)CC2)cc(OC)c1O,IC50,[5],143 µM (active)
CCOC(=O)CC(NC(=O)c1ccco1)c1ccc(OC)cc1 (stereo not drawn),AC50,[3],15.8 µM (inconclusive)
same,AC50,[1],25.1 µM (inconclusive)
COc1cc2c(cc1OC)[C@@]13CCN4C=C5CCO[C@H]6CC(=O)N2[C@@H]1[C@@H]6[C@H]5C[C@H]43,AC50,[1],5.01 µM (inconclusive)
CC(C)(C)OC(=O)N1CCCC1C(=O)NCCc1ccccc1 (stereo not drawn),AC50,[4],25.1 µM (inconclusive)
Cc1ccc(Nc2nnc(S)s2)cc1F,IC50,[5],54.5 µM (active)
O=[N+]([O-])c1cccc(/C=N/Nc2cc(Cl)nc(-c3ccccc3)n2)c1,AC50,[4],17.8 µM (inconclusive)
Cc1ccc2c(c1)/C(=N/OC(=O)c1ccc(F)cc1)CCS2,AC50,[1],0.501 µM (inconclusive)
CC(=O)C(C)Oc1ccc2c3c(c(=O)oc2c1)CCCCC3 (stereo not drawn),CC50,[9],> 50 µM (active)
O=S(=O)(c1cccc2cnccc12)N1CCNCC1,AC50,[2]; read-out: AC50,10 µM (inconclusive)
same,AC50,[1],39.8 µM (inconclusive)
CCOc1ccc2c(c1)C(C)=CC(C)(C)N2 [E324],AC50,[4],12.6 µM (inconclusive)
